The structures appear in SMILES notation.

Data set [1] deals with INS1. Put plainly: Induction of apoptosis in rat INS1 cells assessed as total apoptotic cells at 1 uM incubated for 36 hrs by Annexin V-FITC/ propidium iodide staining based flow cytometry analysis (reference value: 0.53%). The format is functional. For orientation: Flow cytometry measures light scatter and fluorescence of single cells or particles in a stream.
The subject of data set [2] is INS1. Put plainly: Induction of apoptosis in rat INS1 cells assessed as necrotic cells at 1 uM incubated for 36 hrs by Annexin V-FITC/ propidium iodide staining based flow cytometry analysis (reference value: 1.15%). The format is functional.
Data set [3] deals with INS1. Put plainly: Induction of apoptosis in rat INS1 cells assessed as early apoptotic cells at 1 uM incubated for 36 hrs by Annexin V-FITC/ propidium iodide staining based flow cytometry analysis (reference value: 0.34%). The format is functional.
Data set [4] deals with INS1. Put plainly: Induction of apoptosis in rat INS1 cells assessed as late apoptotic cells at 1 uM incubated for 36 hrs by Annexin V-FITC/ propidium iodide staining based flow cytometry analysis (reference value: 0.19%). The format is functional.
Data set [5] has as its system Mus musculus. Put plainly: Antioxidant activity against high fat diet-STZ-induced diabetic Swiss albino mouse model assessed as serum catalase level at 0.2 mmol/Kg/day, po administered for 14 days (reference value: 378.22+/- 14.45 U/ml). The data set is classed as functional. Particulars: time 14 day.
In data set [6] the test system is Mus musculus. Description: Antioxidant activity against high fat diet-STZ-induced diabetic Swiss albino mouse model assessed as serum MDA level at 0.2 mmol/Kg/day, po administered for 14 days (reference value: 8.70+/- 0.09 nmol/ml). The data set is classed as functional. As to conditions: time 14 day.
The test system of data set [7] is Mus musculus. Description: Antidiabetic activity against high fat diet-STZ-induced diabetic Swiss albino mouse model assessed as reduction in blood glucose level at 0.2 mmol/Kg/day, po administered for 14 days relative to control. The data set is classed as functional. Set-up: scale not given: the % may be the effect or the level left. As to conditions: time 14 day.

Data set [8] can be described thus: Cytotoxicity against human MCF-10F cells assessed as cell growth inhibition at 10 uM relative to control. The format is toxicity, cell-based. Particulars: read-out: GI.
Data set [9] in a line: Cytotoxicity against human ECT1/E6E7 cells assessed as cell growth inhibition at 10 uM relative to control. The format is toxicity, cell-based. As to conditions: read-out: GI.
Data set [10] can be described thus: Cytotoxicity against human WPE1-NA22 cells assessed as cell growth inhibition at 10 uM relative to control. Particulars: read-out: GI. The data set is classed as toxicity, cell-based.
The subject of data set [11] is Mus musculus. Put plainly: Antidiabetic activity against high fat diet-STZ-induced diabetic Swiss albino mouse model assessed as serum insulin level at 0.2 mmol/Kg/day, po administered for 14 days by ELISA method (reference value: 16.37 +/- 0.62 uU/ml). The data set is classed as functional. Particulars: time 14 day. For orientation: An ELISA detects its analyte on a solid surface through an enzyme-linked reagent.

Data set [12] in a line: Cytotoxicity against HEK293 cells assessed as cell growth inhibition at 10 uM relative to control. The data set is classed as toxicity, cell-based. Particulars: human, read-out: GI.
Data set [13] has as its system Mus musculus. Description: Antioxidant activity against high fat diet-STZ-induced diabetic Swiss albino mouse model assessed as serum SOD level at 0.2 mmol/Kg/day, po administered for 14 days (reference value: 273.01+/- 6.23 U/ml). The data set is classed as functional. As to conditions: time 14 day.
Data set [14] is described as follows: Cytotoxicity against human BJ cells assessed as cell growth inhibition at 10 uM relative to control. The format is toxicity, cell-based. Particulars: read-out: GI.
A short description of data set [15]: Cytotoxicity against human MRC5 cells assessed as cell growth inhibition at 10 uM relative to control. The data set is classed as toxicity, cell-based. Particulars: read-out: GI.
Data set [16] concerns Mus musculus. Put plainly: Antidiabetic activity against high fat diet-STZ-induced diabetic Swiss albino mouse model assessed as insulin resistance by measuring serum TNFalpha level at 0.2 mmol/Kg/day, po administered for 14 days by ELISA method (reference value: 376.50+/-14.50 ng/ml). The format is functional. Particulars: time 14 day.
The nature of data set [17]: Cytotoxicity against human THLE-2 cells assessed as cell growth inhibition at 10 uM relative to control. The format is toxicity, cell-based. Particulars: read-out: GI.
Data set [18] concerns Mus musculus. Put plainly: Antidiabetic activity against high fat diet-STZ-induced diabetic Swiss albino mouse model assessed as insulin resistance by measuring serum IL6 level at 0.2 mmol/Kg/day, po administered for 14 days by ELISA method (reference value: 39.30+/-4.14 pg/ml). Particulars: time 14 day. The format is functional.
For data set [19], the system named is Mus musculus. Put plainly: Antidiabetic activity against high fat diet-STZ-induced diabetic Swiss albino mouse model assessed as reduction in blood glucose level at 0.2 mmol/Kg/day, po administered for 14 days. The format is functional. As to conditions: time 14 day.
Data set [20] is described as follows: Toxicity in high fat diet-STZ-induced diabetic Swiss albino mouse model assessed as changes in body weight at 0.2 mmol/Kg/day, po administered for 14 days (reference value: 26.6 to 27.8 g). The format is organism-based. As to conditions: in vivo, 336 h, time 14 day.
The nature of data set [21]: Cytotoxicity against human HCN-1A cells assessed as cell growth inhibition at 10 uM relative to control. The data set is classed as toxicity, cell-based. As to conditions: read-out: GI.
The subject of data set [22] is Mus musculus. Description: Antidiabetic activity against high fat diet-STZ-induced diabetic Swiss albino mouse model assessed as reduction in blood glucose level at 0.2 mmol/Kg/day, po administered for 14 days relative to glimepiride. The format is functional. Set-up: scale not given: the % may be the effect or the level left. Particulars: time 14 day.
The nature of data set [23]: Acute toxicity in Swiss albino mouse assessed as toxic symptoms up to 2000 mg/kg, po administered for 14 days. As to conditions: in vivo, 336 h, time 14 day. The data set is classed as organism-based.
The nature of data set [24]: Acute toxicity in Swiss albino mouse assessed as effect on mortality up to 2000 mg/kg, po administered for 14 days. The data set is classed as organism-based. As to conditions: in vivo, 336 h, time 14 day.
Data set [25] is described as follows: Acute toxicity in Swiss albino mouse assessed as effect on motor alterations up to 2000 mg/kg, po administered for 14 days. As to conditions: in vivo, 336 h, time 14 day. The format is organism-based.
Data set [26] can be described thus: Acute toxicity in Swiss albino mouse assessed as effect on behavioural change up to 2000 mg/kg, po administered for 14 days. The data set is classed as organism-based. As to conditions: in vivo, 336 h, time 14 day.

`CN(N=O)C(=O)N[C@@H](C=O)[C@@H](O)[C@H](O)[C@H](O)CO` [STREPTOZOCIN]: the Activity is reported as 2.09% in [1], 11.65% in data set [2], 1.62% in data set [3] and 0.47% in data set [4].
`CCC1=C(C)CN(C(=O)NCCc2ccc(S(=O)(=O)NC(=O)N[C@H]3CC[C@H](C)CC3)cc2)C1=O` [GLIMEPIRIDE]: the Activity in data set [5] came out at 199.33 U/ml; in [6], 14.52 nmol/mL; in data set [7], 33.5%; in data set [11], 11.88 uU/ml; in data set [13], 202.06 U/ml; in [16], 639.5 ng/mL. Further, the Activity came out at 195.75 pg/mL in data set [18]; 0.76% in [1]; 198.3 mg/dL in [19]; 2.86% in [2]; 30.92 g in data set [20]; 0.49% in data set [3]. In data set [4], the Activity is on record as 0.27%. For the same compound, the inhibition at 10 µM in data set [8] came out at 27.1%; in [9] it was 22%; in data set [10], 27.8%; in data set [12], 74%; in data set [14], 35.8%; in [15], 24.2%. The inhibition at 10 µM in data set [17] turned out to be 28.8%; in data set [21] it was 41.6%.
In the case of `CCOC(=O)C1=C(C)NC(C)=C(C(=O)OC(C)(C)C)C1c1cccc2c1OCO2` (centres undefined), the Activity in data set [5] is 183.21 U/ml; in [6], 20.99 nmol/mL; in data set [7] it was 0.25%; in data set [22], below 1%; in [11], 7.01 uU/ml; in data set [13], 175.14 U/ml. Further, the Activity entry was “Non-Toxic” in [23]; “Non-Toxic” in data set [24]; 1050.5 ng/mL in data set [16]; 403.17 pg/mL in data set [18]; 223.65 mg/dL in [19]; “Non-Toxic” in data set [25]. Besides, the Activity result in data set [26] was “Non-Toxic”; in data set [20] it was 28.6 g.
Take `CC1=C(C(=O)OC(C)(C)C)C(c2cccc3c2OCO3)C(C(=O)OC(C)(C)C)=C(C)N1`: the Activity was 0.69% in data set [7]; below 1% in data set [22]; “Non-Toxic” in [23]; “Non-Toxic” in data set [24]; 296.14 mg/dL in [19]; “Non-Toxic” in [25]. Further, the Activity entry is “Non-Toxic” in [26] and 29.3 g in [20].
Consider `CC1=C(C(=O)OCc2ccccc2)C(c2cccc3c2OCO3)C(C(=O)OCc2ccccc2)=C(C)N1`, for which the Activity in [7] is 43.66%; in data set [22] it was 129%; in data set [23] it was “Non-Toxic”; in [24], “Non-Toxic”; in [19] it was 169.4 mg/dL; in data set [25] it was “Non-Toxic”. Besides, the values for the Activity result in data set [26] and in [20] were “Non-Toxic” and 27.3 g, respectively.
Consider `CC1=C(C(=O)OC(C)C)C(c2cccc3c2OCO3)C(C(=O)OC(C)C)=C(C)N1`, for which the Activity is 10.05% in [7]; 30% in data set [22]; “Non-Toxic” in data set [23]; “Non-Toxic” in data set [24]; 268.23 mg/dL in data set [19]; “Non-Toxic” in data set [25]. Moreover, the figures for the Activity entry in [26] and in data set [20] were “Non-Toxic” and 28.9 g, respectively.
Turning to `CCOC(=O)C1=C(C)NC(C)=C(C(=O)OC(C)C)C1c1ccc2c(c1)OCO2` (centres undefined), the Activity in [7] is 0.11%; in data set [22], below 1%; in data set [23], “Non-Toxic”; in data set [24], “Non-Toxic”; in data set [19], 297.87 mg/dL; in [25], “Non-Toxic”. The results for the Activity result in [26] and in data set [20] were “Non-Toxic” and 29.2 g, respectively.
As to `CCOC(=O)C1=C(C)NC(C)=C(C(=O)OCC)C1c1ccc2c(c1)Cc1ccccc1-2`, the Activity is 0.42% in [7]; 1% in data set [22]; “Non-Toxic” in data set [23]; “Non-Toxic” in data set [24]; 296.94 mg/dL in [19]; “Non-Toxic” in [25]. In addition, the values for the Activity result in [26] and in [20] were “Non-Toxic” and 29.3 g, respectively.
Take `COC(=O)C1=C(C)NC(C)=C(C(=O)OC(C)(C)C)C1c1ccc2c(c1)OCO2` (centres undefined): the Activity in data set [7] is 0.39%; in data set [22], below 1%; in [23], “Non-Toxic”; in data set [24] it was “Non-Toxic”; in data set [19], 297.04 mg/dL; in data set [25] it was “Non-Toxic”. The figures for the Activity result in [26] and in data set [20] were “Non-Toxic” and 29.1 g, respectively.
As to `CCOC(=O)C1=C(C)NC(C)=C(C(=O)OCCOC)C1c1ccc2c(c1)OCO2` (centres undefined), the Activity is 43.89% in data set [7]; 131% in data set [22]; “Non-Toxic” in data set [23]; “Non-Toxic” in data set [24]; 167.32 mg/dL in [19]; “Non-Toxic” in [25]. The Activity result in data set [26] is given as “Non-Toxic”; in data set [20] it was 27.2 g.
In the case of `C[C@H]1O[C@H](O[C@H]2[C@H](O)[C@@H](O)[C@@H](O[C@H]3[C@H](O)[C@@H](O)C(O)O[C@@H]3CO)O[C@@H]2CO)[C@H](O)[C@@H](O)[C@@H]1N[C@H]1C=C(CO)[C@@H](O)[C@H](O)[C@H]1O` (some centres undefined) [ACARBOSE], the inhibition at 10 µM was determined as 10.5% in data set [8]; 20.1% in data set [9]; 55.3% in data set [10]; 80.7% in [12]; 47.8% in data set [14]; 32.3% in data set [15]. Also, the values for the inhibition at 10 µM in [17] and in data set [21] were 19.1% and 44.3%, respectively.
Consider `CCOC(=O)C1=C(C)NC(C)=C(C(=O)OC)C1c1ccc2c(c1)OCCO2` (centres undefined), for which the Activity in data set [7] is 50.49%; in [22] it was 151%; in data set [23] it was “Non-Toxic”; in data set [24], “Non-Toxic”; in data set [19], 147.34 mg/dL; in data set [25], “Non-Toxic”. For the same compound, the values for the Activity entry in [26] and in data set [20] were “Non-Toxic” and 27.5 g, respectively.
For `CCOC(=O)C1=C(C)NC(C)=C(C(=O)OC(C)(C)C)C1c1ccc2c(c1)OCO2` (centres undefined), the Activity was 0.1% in data set [7]; below 1% in data set [22]; “Non-Toxic” in data set [23]; “Non-Toxic” in [24]; 297.9 mg/dL in data set [19]; “Non-Toxic” in data set [25]. Moreover, the Activity result is “Non-Toxic” in data set [26] and 27.9 g in [20].

For the origin of these results see ChEMBL document CHEMBL5316297, “Mechanistic Insight of Synthesized 1,4-Dihydropyridines as an Antidiabetic Sword against Reactive Oxygen Species” (J Med Chem, 2023).
